Results as given in US20200131669A1, “CYCLIC PEPTIDE COMPOUND HAVING HIGH MEMBRANE PERMEABILITY, AND LIBRARY CONTAINING SAME” (Chugai Seiyaku Kabushiki Kaisha, priority 2017, published 2020).
Starred links: 1 amine or outer side, 2 acyl side, 3 side chain; linkers in the order of their positions; H or OH if unused. Positions of bridges follow the written chain, without caps; N, C: chain ends. Non-standard residues stand in square brackets, D forms with d. Residues, ends and D or L forms follow the SMILES beside them. *: point of attachment. NMeAbu(3,3-F2-piperidino) = CN[C@@H](CCN1CCCC(F)(F)C1)C(=O)O; X4 = O=C([C@@H]1C[C@@H](N2CCC(F)(F)CC2)CN1[*:1])[*:2]; NMePhe(3-Cl) = CN[C@@H](Cc1cccc(Cl)c1)C(=O)O; Tyr(3-F) = N[C@@H](Cc1ccc(O)c(F)c1)C(=O)O; Gly(N-(CH2)2OEt) = CCOCCNCC(=O)O; NMeF = CN[C@@H](Cc1ccccc1)C(=O)O; NMeGABA = CN(CCCC(=O)[*:2])[*:1]; CH2CONHtBu = CC(C)(C)NC(=O)C*; NMeL = CN[C@@H](CC(C)C)C(=O)O; Propyl(2R-OH) = C[C@@H](O)C*; NMeV = CN[C@H](C(=O)O)C(C)C; NMeAbu = CC[C@H](NC)C(=O)O; NPentylGly = CCCCCNCC(=O)O; NMeA = CN[C@@H](C)C(=O)O; Piperidide = C1CCN(*)CC1; dAbu = CC[C@@H](N)C(=O)O; Abu = CC[C@H](N)C(=O)O; Me2NCH2CH2 = CN(C)CC*; NBuGly = CCCCNCC(=O)O; NPrGly = CCCNCC(=O)O; Sar = CNCC(=O)O; tBu = CC(C)(C)*

experiment: Caco-2 membrane permeability, improved method as used in the following Examples (96-well, 20 to 24 h preincubation); assay type: in vitro ADME; details: human, Caco-2, Caco-2
Method in brief: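 Caco-2 monolayers were grown three weeks and preincubated 20–24 h at 37 °C with compound in DMEM+FaSSIF (1% DMSO) apically. The assay then used compound in FaSSIF/HBSS (1% DMSO, pH 6.0) apically and HBSS with 4% BSA (pH 7.4) basally. Basal samples were taken at 180 min for LC/MS, and Papp (cm/sec) was calculated.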

SMILES | Papp A→B at 180 min [×10⁻⁶ cm/s]
CCOCCN1CC(=O)N(C)[C@@H](CC(C)C)C(=O)N[C@@H](COC(C)(C)C)C(=O)N(C)[C@@H](Cc2ccccc2)C(=O)N(C)[C@@H](CC)C(=O)N[C@H](C(=O)N2CCCCC2)CC(=O)N[C@H](CC(C)C)C(=O)N(C)[C@@H](Cc2ccccc2)C(=O)N[C@@H](CC(C)C)C(=O)N(C)[C@@H](CC)C(=O)N[C@@H]([C@@H](C)O)C1=O [pd416] ([dL][NMeF]L[NMeAbu]T[Gly(N-(CH2)2OEt)][NMeL]S(tBu)[NMeF][NMeAbu]D-Piperidide; lactam N-11) | 3.1
CCCCCN1CC(=O)N[C@@H]([C@@H](C)O)C(=O)N(C)CC(=O)N(C)[C@@H](CC(C)C)C(=O)N[C@H](C(=O)N2CCCCC2)CC(=O)N(C)[C@@H](CC)C(=O)N[C@@H](CC(C)C)C(=O)N(C)[C@@H](CC(C)C)C(=O)N(C)[C@@H](Cc2ccccc2)C(=O)N[C@@H](CC)C(=O)N(C)[C@@H](Cc2ccccc2)C1=O [pd408] ([NMeAbu]L[NMeL][NMeF][Abu][NMeF][NPentylGly]T[Sar][NMeL]D-Piperidide; lactam N-11) | 1.8
CCOCCN1CC(=O)N(C)[C@@H](CC(C)C)C(=O)N[C@H](C(=O)N2CCCCC2)CC(=O)N(C)[C@@H](C(C)C)C(=O)N[C@@H](CC(C)C)C(=O)N(C)[C@@H](CC)C(=O)N(C)[C@@H](Cc2ccccc2)C(=O)N[C@@H](CC(C)C)C(=O)N(C)[C@@H](Cc2ccccc2)C(=O)N(C)[C@@H](CC)C(=O)N[C@@H]([C@@H](C)O)C1=O [pd417] ([NMeV]L[NMeAbu][NMeF]L[NMeF][NMeAbu]T[Gly(N-(CH2)2OEt)][NMeL]D-Piperidide; lactam N-11) | 1
CC[C@H]1NC(=O)C[C@@H](C(=O)N2CCCCC2)NC(=O)[C@H](CC(C)C)N(C)C(=O)[C@H](Cc2ccccc2)NC(=O)[C@@H]2C[C@@H](N3CCC(F)(F)CC3)CN2C(=O)[C@H]([C@@H](C)O)NC(=O)[C@H](CC(C)C)N(C)C(=O)[C@H](CC(C)C)NC(=O)[C@H](CC(C)C)N(C)C(=O)[C@H](COC(C)(C)C)NC(=O)[C@H](CC(C)C)N(C)C1=O [pd459] ([dAbu][NMeL]S(tBu)[NMeL]L[NMeL]T[X4]F[NMeL]D-Piperidide; lactam N-11) | 1.6
CCCCN1CC(=O)N(C)[C@@H](Cc2ccccc2)C(=O)N[C@@H]([C@@H](C)CC)C(=O)N(C)[C@@H](CC(C)C)C(=O)N[C@@H]([C@@H](C)O)C(=O)N(CCC)CC(=O)N(C)[C@@H](Cc2ccccc2)C(=O)N(C)[C@@H](CC(C)C)C(=O)N[C@@H](COCC(=O)NC(C)(C)C)C(=O)N(C)[C@@H](C)C(=O)N[C@H](C(=O)N2CCCCC2)CC1=O [pd443] ([NBuGly][NMeF]I[NMeL]T[NPrGly][NMeF][NMeL]S(CH2CONHtBu)[NMeA]D-Piperidide; lactam N-11) | 1
CC(C)C[C@@H]1NC(=O)[C@H](Cc2ccccc2)N(C)C(=O)[C@H](Cc2ccccc2)N(C)C(=O)[C@H](CC(C)C)NC(=O)[C@H](CC(C)C)N(C)C(=O)CCCN(C)C(=O)C[C@@H](C(=O)N2CCCCC2)NC(=O)[C@H](C)N(C)C(=O)[C@H](CCN2CCCC(F)(F)C2)N(C)C(=O)[C@H]([C@@H](C)O)NC(=O)[C@H](CC(C)C)N(C)C1=O [pd390] ([NMeGABA][NMeL]L[NMeF][NMeF]L[NMeL]T[NMeAbu(3,3-F2-piperidino)][NMeA]D-Piperidide; lactam N-11) | 2
CCCCN1CC(=O)N(C)[C@@H](Cc2ccccc2)C(=O)N(C)[C@@H](CC(C)C)C(=O)N[C@@H](COC(C)(C)C)C(=O)N(C)[C@@H](CC(C)C)C(=O)N[C@H](C(=O)N2CCCCC2)CC(=O)N(C)CC(=O)N(C)[C@@H](Cc2cccc(Cl)c2)C(=O)N[C@@H](COC[C@@H](C)O)C(=O)N(C)[C@@H](CC(C)C)C(=O)N[C@@H]([C@@H](C)O)C1=O [pd490] ([Sar][NMePhe(3-Cl)]S(Propyl(2R-OH))[NMeL]T[NBuGly][NMeF][NMeL]S(tBu)[NMeL]D-Piperidide; lactam N-11) | 1
CC[C@H](C)[C@H]1C(=O)N[C@@H]([C@@H](C)O)C(=O)N(C)CC(=O)N(C)[C@@H](CC(C)C)C(=O)N[C@H](C(=O)N2CCCCC2)CC(=O)N(C)[C@@H](C)C(=O)NC(COc2cccc(Cl)c2)C(=O)N(C)[C@@H](CC(C)C)C(=O)N(C)[C@@H](Cc2ccccc2)C(=O)N[C@@H](C)C(=O)N(C)[C@@H](Cc2ccccc2)C(=O)N1C (stereo partly shown) [pd344] | 1.3
CC(C)C[C@@H]1NC(=O)[C@H](CC(C)C)N(C)C(=O)CCCN(C)C(=O)C[C@@H](C(=O)N2CCCCC2)NC(=O)[C@H](CC(C)C)N(C)C(=O)[C@H](CC(C)C)N(C)C(=O)[C@H]([C@@H](C)O)NC(=O)[C@H](CC(C)C)N(C)C(=O)[C@H](COCCN(C)C)NC(=O)[C@H](Cc2ccccc2)N(C)C(=O)[C@H](Cc2ccccc2)N(C)C1=O [pd54] ([NMeGABA][NMeL]L[NMeF][NMeF]S(Me2NCH2CH2)[NMeL]T[NMeL][NMeL]D-Piperidide; lactam N-11) | 0.073

same assay, conditions: human, Caco-2, Caco-2 (cm/sec)

SMILES | Papp A→B at 180 min [×10⁻⁶ cm/s]
CC[C@H](C)[C@@H]1NC(=O)[C@H](Cc2ccccc2)N(C)C(=O)[C@H]([C@@H](C)O)NC(=O)[C@@H](C)NC(=O)C[C@@H](C(=O)N(C)[C@@H](Cc2ccccc2)C(=O)N(C)[C@@H](Cc2ccccc2)C(=O)N[C@@H](C)C(=O)N2CCCCC2)NC(=O)[C@H](CC(C)C)N(C)C(=O)[C@H](CC(C)C)N(C)C(=O)[C@H](Cc2ccccc2)N(C)C(=O)[C@H](CC(C)C)N(C)C(=O)[C@H](C)N(C)C1=O [pd242] ([dA]T[NMeF]I[NMeA][NMeL][NMeF][NMeL][NMeL]D[NMeF][NMeF]A-Piperidide; lactam N-10) | 0.058
CC[C@H](C)[C@@H]1NC(=O)[C@H](CC(C)C)N(C)C(=O)[C@@H](C)NC(=O)C[C@@H](C(=O)N2CCCCC2)NC(=O)[C@H](C(C)C)N(C)C(=O)[C@H](Cc2ccccc2)N(C)C(=O)[C@H](COC(C)(C)C)NC(=O)[C@H](CC(C)C)N(C)C(=O)CN(C)C(=O)[C@H](Cc2ccc(O)cc2)NC(=O)[C@H](C)N(C)C1=O [pd117] ([dA][NMeL]I[NMeA]Y[Sar][NMeL]S(tBu)[NMeF][NMeV]D-Piperidide; lactam N-11) | 0.56
CC(C)C[C@H]1NC(=O)C[C@@H](C(=O)N2CCCCC2)NC(=O)[C@H](C)N(C)C(=O)[C@H](CC(C)C)N(C)C(=O)[C@H](COC(C)(C)C)NC(=O)[C@H](CC(C)C)N(C)C(=O)CN(C)C(=O)[C@H]([C@@H](C)O)NC(=O)[C@H](CC(C)C)N(C)C(=O)[C@H](Cc2ccc(O)c(F)c2)NC(=O)[C@H](Cc2ccccc2)N(C)C1=O [pd118] ([dL][NMeF][Tyr(3-F)][NMeL]T[Sar][NMeL]S(tBu)[NMeL][NMeA]D-Piperidide; lactam N-11) | 0.2
CC(C)C[C@H]1C(=O)N[C@@H](COC(C)(C)C)C(=O)N(C)[C@@H](Cc2ccccc2)C(=O)N(C)[C@@H](CC(C)C)C(=O)N[C@H](C(=O)N2CCCCC2)CC(=O)N2CCC[C@H]2C(=O)N(C)[C@@H](Cc2cccc(Cl)c2)C(=O)N[C@@H](C(C)C)C(=O)N(C)[C@@H](C(C)C)C(=O)N[C@@H]([C@@H](C)O)C(=O)N(C)CC(=O)N1C [pd156] (P[NMePhe(3-Cl)]V[NMeV]T[Sar][NMeL]S(tBu)[NMeF][NMeL]D-Piperidide; lactam N-11) | 2.9
